Assay results published in PubChem BioAssay AID1259407 (Chemical Carcinogenesis Research Information System (CCRIS), 2018).
The source made the active and inactive calls. The rule behind the calls is not given here.

Test system: CCRIS mutagenicity, Ames/micronucleus/aberration tests
Assay: CCRIS mutagenicity studies
Details: Test System: AMES SALMONELLA TYPHIMURIUM
[1] = Strain/Indicator: TA98, Metabolic Activation: NONE, Method: STANDARD PLATE
[2] = Strain/Indicator: TA100, Metabolic Activation: NONE, Method: STANDARD PLATE
[3] = Strain/Indicator: TA1535, Metabolic Activation: NONE, Method: STANDARD PLATE
[4] = Strain/Indicator: TA1537, Metabolic Activation: NONE, Method: STANDARD PLATE

O=[N+]([O-])c1cccc2nscc12
mutagenic call [1]: active; positive | mutagenic call (Strain/Indicator: TA98, Metabolic Activation: S-9, Method: STANDARD PLATE): active; positive | mutagenic call [2]: active; positive | mutagenic call (Strain/Indicator: TA100, Metabolic Activation: S-9, Method: STANDARD PLATE (TEST MATERIAL SOLVENT:DMSO)): active; positive | mutagenic call [3]: active; positive | mutagenic call (Strain/Indicator: TA1535, Metabolic Activation: S-9, Method: STANDARD PLATE): inactive; negative | mutagenic call [4]: active; positive | mutagenic call (Strain/Indicator: TA1537, Metabolic Activation: S-9, Method: STANDARD PLATE): inactive; negative

ClCCNCCCNc1c2ccccc2nc2c1ccc1cccnc12
mutagenic call [1]: active; positive | mutagenic call [2]: active; positive | mutagenic call [3]: inactive; negative | mutagenic call (Strain/Indicator: TA1536, Metabolic Activation: NONE, Method: STANDARD PLATE): active; positive | mutagenic call [4]: active; positive | mutagenic call (Strain/Indicator: TA1538, Metabolic Activation: NONE, Method: STANDARD PLATE): active; positive

Nc1ccc2cccnc2c1
mutagenic call (Strain/Indicator: TA98, Metabolic Activation: NONE, Method: PREINCUBATION): inactive; negative | mutagenic call (Strain/Indicator: TA98, Metabolic Activation: RAT, LIVER, S-9, KANECHLOR 500 OR PHENOBARBITAL AND BETA-NAPHTHOFLAVONE, Method: PREINCUBATION): active; positive | mutagenic call (Strain/Indicator: TA100, Metabolic Activation: NONE, Method: PREINCUBATION): active; positive | mutagenic call (Strain/Indicator: TA100, Metabolic Activation: RAT, LIVER, S-9, KANECHLOR 500 OR PHENOBARBITAL AND BETA-NAPHTHOFLAVONE, Method: PREINCUBATION): active; positive

CCC(C)c1ccc(/C=C/c2ccc([N+](=O)[O-])cc2)cc1 (configuration not stated)
mutagenic call [1]: active; positive | mutagenic call (Strain/Indicator: TA98, Metabolic Activation: RAT, LIVER, S-9, AROCLOR, Method: STANDARD PLATE): active; positive | mutagenic call [2]: inactive; negative | mutagenic call (Strain/Indicator: TA100, Metabolic Activation: RAT, LIVER, S-9, AROCLOR, Method: STANDARD PLATE): active; positive
